Test results from patent US12318398B2, “MST1 kinase inhibitor and use thereof” (priority 2018, dated 2025).
Read-outs that look alike come from different tables or passages of the source.

Tests used:
[1] = molecular target: MST1 (Homo sapiens (Human), UniProt Q13043); experiment: In vitro enzyme activity test (ADP-GLO); type: biochemical
Description: The IC50 values of the compounds against MST1 were determined. The protein kinase MST1 and the substrate were obtained from commercial sources.
5.4 μL of protein kinase MST1 diluted to a certain concentration (final concentration was 2.5 ng/μL) and 1 μL of serially diluted drug compounds and control compound XMU-MP-1 were taken to react at room temperature for 10 minutes (final drug concentrations were 10 μM, 1 μM, 0.3 μM, 0.1 μM, 0.03 μM, 0.01 μM, 0.003 μM, 0.001 μM, respectively).
6 μL of a mixture of ATP (with a final reaction concentration of 50 μM) and substrate was added to the above reaction tube to react at 37° C. for 1 hour. The reaction buffer was 40 mM Tris, 7.5; 20 mM MgCl2; 0.1 mg/ml BSA; 50 μM DTT.
5 μL of the kinase mixture after the reaction was taken to a 384-well plate, and 5 μL of ADP-GLO™ reagent was added thereto. After reaction at room temperature for 40 minutes, the kinase reaction was terminated and the remaining ATP was consumed.
10 μL of a kinase detection reagent was added to convert ADP into ATP, and a coupled luciferase/luciferin reaction was utilized to detect the newly synthesized ATP. Envision was used to read and plot the data, and calculate the IC50 value.

[2] = tested on: Caspase9/7/3, PARP, BIM, BCL-XL; experiment: Effect on apoptosis signaling pathway of pancreatic β cells; type: cell-based, mouse; conditions: MIN-6 cells, 1 μM, 72 hours, 33.3 mM glucose
Description: (§1) The effects of compound 1 and the control compound XMU-MP-1 on MST1 signaling pathway such as autophosphorylation of MST1, apoptosis signaling pathway such as cleavage of four proteins Caspase9/7/3 and PARP, expression of BIM, BAX, BCL-2, BCL-XL protein, proliferation-related signaling pathway such as autophosphorylation of AKT and ERK, and phosphorylation and protein expression of insulin secretion transcription factor PDX1 were tested in mouse pancreatic β-cells, MIN-6 cells (Hunan Fenghuishengwu technology Co., Ltd.). Compound 1 of different concentrations (0 μM, 0.3 μM, 1 μM, 3 μM in DMSO) and XMU-MP-1 of 1 μM (in DMSO) were used to treat the cell line for 72 hours in a medium with a glucose content of 33.3 mM, respectively. One of the control DMSO group involved 5.5 mM glucose and the other one involved 33.3 mM glucose. The samples were collected.

[3] = tested on: MIN-6 cells; experiment: Proliferation of MIN-6 cells (cell counter); conditions: 0.3-3 μM, 72 hours, as the drug concentration increases
Description: as §1
JIMBIO cell counter (EXCEL HERO TECHNOLOGY LIMITED) was used to detect the effect on the proliferation of MIN-6 cells after 72 hours of the administration.

[4] = tested on: autophosphorylation of MST1; experiment: Effect on MST1 signaling pathway of pancreatic β cells; type: cell-based, mouse; conditions: MIN-6 cells, 1 μM, 72 hours, 33.3 mM glucose
Description: as §1

[5] = tested on: autophosphorylation of AKT and ERK; experiment: Effect on proliferation-related signaling pathway of pancreatic β cells; type: cell-based, mouse; conditions: MIN-6 cells, 72 hours, 33.3 mM glucose
Description: as §1

[6] = tested on: C57BL/6 mice; experiment: Liver injury repair experiment (paracetamol/APAP-induced); type: in vivo
Description: C57BL/6 mice, male, 20 g, were maintained in a SPF animal room. Thirty C57BL/6 mice were fasted for 12 hours overnight, and 5 mice of which were intraperitoneally injected with normal saline to act as a normal control group, and the other 25 mice were intraperitoneally injected with paracetamol (APAP) (purchased from Sigma)-600 mg/kg, and randomly divided into 5 groups after 30 minutes, wherein the 5 groups include vehicle (5% DMSO in water), compound 1-1-po, compound 1-2-po, compound 1-4-po, XMU-MP-1-ip groups. Mice in the vehicle group were administered intragastrically with vehicle control; mice in the compound 1-1-po, compound 1-2-po, compound 1-4-po groups were administered intragastrically with compound 1 at 1 mg/kg, 2 mg/kg or 4 mg/kg, respectively; mice in the XMU-MP-1-ip group were intraperitoneally administered with the control compound XMU-MP-1 at 1 mg/kg. After the administration, the body weight of the mice was monitored and the survival status of the mice was observed.

[7] = tested on: PDX1; experiment: Effect on insulin secretion transcription factor PDX1 in pancreatic β cells; type: cell-based, mouse; conditions: MIN-6 cells, 72 hours, 33.3 mM glucose
Description: as §1

[8] = read-out: MST1 (IC50/μM), ATP 50 μM, 37° C. 1 hour
[9] = ATP 50 μM, 37° C. 1 hour, read-out: MST1 (IC50/μM)

Sequence of MST1 (Q13043 whole entry): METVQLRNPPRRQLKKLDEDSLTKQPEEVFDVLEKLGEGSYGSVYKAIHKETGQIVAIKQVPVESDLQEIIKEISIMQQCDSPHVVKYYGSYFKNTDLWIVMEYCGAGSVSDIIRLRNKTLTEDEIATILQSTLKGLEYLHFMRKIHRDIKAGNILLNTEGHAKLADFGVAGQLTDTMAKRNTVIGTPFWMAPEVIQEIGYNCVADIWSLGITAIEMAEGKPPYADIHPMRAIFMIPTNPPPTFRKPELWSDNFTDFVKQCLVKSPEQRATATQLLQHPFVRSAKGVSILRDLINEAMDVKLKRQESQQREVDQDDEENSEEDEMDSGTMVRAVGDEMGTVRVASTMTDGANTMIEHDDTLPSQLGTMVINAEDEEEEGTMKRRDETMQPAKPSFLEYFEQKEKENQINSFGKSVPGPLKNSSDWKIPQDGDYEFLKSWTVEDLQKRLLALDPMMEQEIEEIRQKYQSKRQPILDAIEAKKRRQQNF

Compound	IC50 [1, 8] [µM]	IC50 [1, 9] [µM]	further results
CN1C(=O)C(c2c(F)cccc2F)N(C)c2nc(Nc3ccc(S(=O)(=O)NC4CC4)cc3)ncc21 (centres unmarked) [Compound 27, N-cyclopropyl-4-((7-(2,6-difluorophenyl)-5,8-dimethyl-6-oxo-5,6,7,8-tetrahydropteridin-2-yl)amino)benzsulfamide]	0.113	–	–
CCCC1C(=O)N(C)c2cnc(Nc3ccc(S(N)(=O)=O)cc3)nc2N1C (centres unmarked) [Compound 17, 4-((5,8-dimethyl-6-oxo-7-propyl-5,6,7,8-tetrahydropteridin-2-yl)amino)benzsulfamide]	–	0.206	–
Cc1ccccc1C1C(=O)N(C)c2cnc(Nc3ccc(S(N)(=O)=O)cc3)nc2N1C (centres unmarked) [Compound 25, 4-((5,8-dimethyl-6-oxo-7-(o-methylphenyl)-5,6,7,8-tetrahydropteridin-2-yl)amino)benzsulfamide]	0.0227	–	–
CCNS(=O)(=O)c1ccc(Nc2ncc3c(n2)N(C)C(c2c(F)cccc2F)C(=O)N3C)cc1 (centres unmarked) [Compound 38, 4-((7-(2,6-difluorophenyl)-5,8-dimethyl-6-oxo-5,6,7,8-tetrahydropteridin-2-yl)amino)-N-ethylbenzsulfamide]	0.0516	–	–
CN1C(=O)[C@@H](c2ccccc2)N(C)c2nc(Nc3ccc(S(N)(=O)=O)cc3)ncc21 [Compound 10, (R)-4-((5,8-dimethyl-6-oxo-7-phenyl-5,6,7,8-tetrahydropteridin-2-yl)amino)benzsulfamide]	0.0987	–	–
CN1C(=O)C(c2c(F)cccc2F)N(C)c2nc(Nc3ccc(S(N)(=O)=O)cc3)ncc21 (centres unmarked) [Compound 1, 4-((7-(2,6-difluorophenyl)-5,8-dimethyl-6-oxo-5,6,7,8-tetrahydropteridin-2-yl)amino)benzsulfamide]	0.023	–	cleavage of the four proteins Caspase9/7/3 and PARP [2]: inhibit the cleavage; expression of pro-apoptosis-related proteins such as BIM [2]: down-regulate; expression of the anti-apoptotic protein BCL-XL [2]: promote the expression; cell proliferation [3]: can promote cell proliferation; autophosphorylation of MST1 [4]: significantly inhibit; AKT autophosphorylation [5]: does not affect; ERK autophosphorylation [5]: can activate; survival rate of the mice ([6]; 1 mg/kg intragastrically after APAP 600 mg/kg ip): 80%; survival of the mice ([6]; 2 mg/kg intragastrically after APAP 600 mg/kg ip): all escaped from death; survival of the mice ([6]; 4 mg/kg intragastrically after APAP 600 mg/kg ip): all escaped from death; weight of mice ([6]; after APAP 600 mg/kg ip, compound 1 po 1-4 mg/kg, XMU-MP-1 ip 1 mg/kg): can gradually recover; expression of PDX1 [7]: promotes the expression of PDX1 to a certain extent; phosphorylation of the transcription factor PDX1 [7]: a certain inhibitory effect
CN1C(=O)C(c2c(F)cccc2F)N(C)c2nc(Nc3ccc(S(=O)(=O)NCC4CC4)cc3)ncc21 (centres unmarked) [Compound 33, N-(cyclopropylmethyl)-4-((7-(2,6-difluorophenyl)-5,8-dimethyl-6-oxo-5,6,7,8-tetrahydropteridin-2-yl)amino)benzsulfamide]	–	0.0796	–
CN1C(=O)C(c2ccccc2F)N(C)c2nc(Nc3ccc(S(N)(=O)=O)cc3)ncc21 (centres unmarked) [Compound 21, 4-((7-(2-fluorophenyl)-5,8-dimethyl-6-oxo-5,6,7,8-tetrahydropteridin-2-yl)amino)benzsulfamide]	–	0.0753	–
CN1C(=O)C(c2ccccc2)N(C)c2nc(Nc3ccc(S(=O)(=O)NC4CC4)cc3)ncc21 (centres unmarked) [Compound 6, N-cyclopropyl-4-((5,8-dimethyl-6-oxo-7-phenyl-5,6,7,8-tetrahydropteridin-2-yl)amino)benzsulfamide]	0.143	–	–
CN1C(=O)C(c2c(F)cccc2F)N(C)c2nc(Nc3ccc(S(=O)(=O)N(C)C4CC4)cc3)ncc21 (centres unmarked) [Compound 32, N-cyclopropyl-4-((7-(2,6-difluorophenyl)-5,8-dimethyl-6-oxo-5,6,7,8-tetrahydropteridin-2-yl)amino)-N-methylbenzsulfamide]	0.0316	–	–
CN1C(=O)C2(CC2)N(C)c2nc(Nc3ccc(S(N)(=O)=O)cc3)ncc21 [Compound 7, 4-((5′,8′-dimethyl-6′-oxo-5′,8′-dihydro-6′H-spiro[cyclopropan-1,7′-pteridin]-2′-yl)amino)benzsulfamide]	–	0.103	–
CC(C)CC1C(=O)N(C)c2cnc(Nc3ccc(S(N)(=O)=O)cc3)nc2N1C (centres unmarked) [Compound 16, 4-((7-isobutyl-5,8-dimethyl-6-oxo-5,6,7,8-tetrahydropteridin-2-yl)amino)benzsulfamide]	–	0.0767	–
CN1C(=O)C(c2ccccc2C(F)(F)F)N(C)c2nc(Nc3ccc(S(N)(=O)=O)cc3)ncc21 (centres unmarked) [Compound 22, 4-((5,8-dimethyl-6-oxo-7-(2-(trifluoromethyl)phenyl)-5,6,7,8-tetrahydropteridin-2-yl)amino)benzsulfamide]	–	0.0563	–
CN1C(=O)C(C2CC2)N(C)c2nc(Nc3ccc(S(N)(=O)=O)cc3)ncc21 (centres unmarked) [Compound 19, 4-((7-cyclopropyl-5,8-dimethyl-6-oxo-5,6,7,8-tetrahydropteridin-2-yl)amino)benzsulfamide]	–	0.137	–
CN1C(=O)C2(CCCC2)N(C)c2nc(Nc3ccc(S(N)(=O)=O)cc3)ncc21 [Compound 14, 4-((5′,8′-dimethyl-6′-oxo-5′,8′-dihydro-6′H-spiro[cyclopentan-1,7′-pteridin]-2′-yl)amino)benzsulfamide]	–	0.129	–
CN1C(=O)[C@H](c2ccccc2)N(C)c2nc(Nc3ccc(S(N)(=O)=O)cc3)ncc21 [Compound 4, (S)-4-((5,8-dimethyl-6-oxo-7-phenyl-5,6,7,8-tetrahydropteridin-2-yl)amino)benzsulfamide]	0.197	–	–
CN1C(=O)C2(CCC2)N(C)c2nc(Nc3ccc(S(N)(=O)=O)cc3)ncc21 [Compound 15, 4-((5′,8′-dimethyl-6′-oxo-5′,8′-dihydro-6′H-spiro[cyclobutan-1,7′-pteridin]-2′-yl)amino)benzsulfamide]	–	0.141	–
CN1C(=O)C(c2cccc(F)c2)N(C)c2nc(Nc3ccc(S(N)(=O)=O)cc3)ncc21 (centres unmarked) [Compound 11, 4-((7-(3-fluorophenyl)-5,8-dimethyl-6-oxo-5,6,7,8-tetrahydropteridin-2-yl)amino)benzsulfamide]	–	0.134	–
CN1C(=O)C(c2cccs2)N(C)c2nc(Nc3ccc(S(N)(=O)=O)cc3)ncc21 (centres unmarked) [Compound 20, 4-((5,8-dimethyl-6-oxo-7-(thien-2-yl)-5,6,7,8-tetrahydropteridin-2-yl)amino)benzsulfamide]	–	0.0879	–
